Source: patent publication US11254958B1, “Metabolic engineering of E coli with thio-phosphate” (priority 2018, dated 2022)
Where “and” joins values, the source holds several entries; their conditions need not be identical. Equal values may be shown once.

Columns and labels:
E. coli K-12 = assay: RNA seq analysis of total RNA (FPKM); assay type: cell-based; set-up: hisA transcript elevation / FabB transcript elevation / TesA transcript elevation / FabD transcript elevation / FabH transcript elevation / ftsI transcript elevation / idtC transcript elevation / idtB transcript elevation: unit not given here
Method: E coli K12 bacteria were grown in high citrate minimal media with 5.4 g/L of thiophosphate or 2.4 g/L of Na2HPO4 for up to 12 hrs. The use of high citrate media was chosen to help lower the total amount of thiophosphate needed for growth when compared to regular M9 media (1). The media is prepared as follows: thiophosphate, 5.4 g/L; KCL 1.5 g/L; (NH4)2SO4, 2 g/L; sodium citrate 2H2O, 10 g/L. Adjust the pH to 7.5 and sterile filter the solution. Then add the following: MgSO4-7H2O, 0.2 g/L (sterilized separately as a conc. solution); glucose, 2 g/L sterilized separately by filtration). Glucose can also be sterilized by autoclaving separately. CaCl2 (11 mg/L) is also be added as needed.
For RNA seq analysis the RNA library was prepared using Illumina's TruSeq Stranded mRNA library prep (Illumina, 2010) without selection. The sequencing platform was HiSeq 2500 with a read format of PE 2×150. The coverage was at least 40 million per sample without rRNA depletion. A custom software build (Omegabioservice) of rRNA and tRNA sequences for reference mapping was used to more rapidly map rRNA sequences and avoid compression.
To get some idea of the impact of RNA stabilization via thiophosphate on specific mRNAs, RNA seq results were analyzed as FPKM (fragments per kilobase pair million) out of all reads including rRNA. This study was designed to give an absolute comparison rather than a relative comparison of transcript levels in total RNA. For control cells a total of 43 million reads of 150 bp in length were analyzed while 73.9 million reads were used in thiophosphate treated samples. The reads were mapped to a reference genome, E. coli K-12 substr. MG1655. One of the first things noticed was that many genes were not detected in both treated and control samples. Some of these absences were undoubtedly due to the low coverage resulting from the presence of numerous ribosomal RNA sequences in the preparations. However, even some transcripts readily detected by microarray analysis were not present. Other transcripts were not assessed due to their high copy number and the need for protracted computational time to quantitate. The second thing that was most obvious when comparing the two samples was there were many changes both positive and negative in the levels of transcripts for different genes. The results pointed to significant transcriptional changes induced secondarily via the general stabilization of RNA in vivo with thiophosphate.

[1] = tested on: E. coli K12 and JM109 strains; assay: Morphological changes by bright field microscopy; assay type: cell-based; conditions: K12, semi-synthetic media
E coli = conditions: cited from earlier work

## OP(O)(O)=S [thio-phosphate]
E. coli K-12
  maximum decrease observed: 1550 ×
  median fold change, transcripts for 18 of the most abundant proteins: 1.55 × fold
  median fold decrease of decreased genes: 2.4
  median fold increase of increased genes: 2.75
  transcript level of the 2 out of 18 abundant-protein genes showing reduction: 80 % of normal
E. coli K-12; 12 genes expressed at low levels
  genes expressed at low levels showing negative fold changes in mRNA: 58%
E. coli K-12; 33 mRNAs, half-lives between 5-7 mins, platform not given
  transcripts showing negative fold changes, average stability mRNA class: 30%
E. coli K-12; 33 mRNAs, half-lives of 3 mins or less, platform not given
  transcripts showing negative fold changes, unstable mRNA class: 36%
E. coli K-12; 33 mRNAs, half-lives of 11 mins or more, platform not given
  transcripts showing negative fold changes, stable mRNA class: 36%
E. coli K-12; 4,311 E. coli genes, vs controls
  fold increase in total FPKM counts: 1.37 × fold
E. coli K-12; RNA seq
  FabB transcript elevation: 98
  FabD transcript elevation: 3.1
  FabH transcript elevation: 10.5
  Leu A transcript fold reduction: ~500 × fold
  Leu C transcript fold reduction: ~500 × fold
  Leu D transcript fold reduction: ~500 × fold
  TesA transcript elevation: 3.5
  accA transcript elevation: 19.8 ×
  accC transcript elevation: 6.2 ×
  accD transcript elevation: 3.39 × and 3.4 ×
  adk transcript fold elevation: 3.4 × fold
  aidB transcript fold elevation: 4-6 × fold
  bacA transcript elevation: 12 ×
  cysK transcript reduction: SOX
  cysM transcript reduction: 292 ×
  ddlB transcript increase: 30 ×
  dusB transcript fold elevation: 1.18
  dxs transcript fold increase: 101
  hisA transcript elevation: 6.2
  hisB transcript elevation: 162 ×
  hisC transcript elevation: 117 ×
  hisD transcript elevation: 10.9 ×
  hisG transcript elevation: 4.6 ×
  hisH transcript elevation: 28 ×
  hisI transcript elevation: 5 ×
  idi transcript fold increase: 3.57
  infB transcript fold elevation: 3 × fold
  ispA transcript elevation: 154 ×
  ispD transcript fold increase: 2
  ispE transcript fold increase: 1.8
  ispF transcript fold increase: 2.6
  ispH transcript fold increase: 2.2
  katE transcript fold elevation: 4-6 × fold
  murC transcript increase: 26 ×
  murD transcript increase: 144 ×
  murE transcript increase: 152 ×
  murF transcript increase: 250 ×
  murG transcript increase: 199 ×
  otsA transcript fold elevation: 4-6 × fold
  prsA transcript elevation: < 2 ×
  pyrG transcript fold elevation: 2.1 × fold
  pyrH transcript fold elevation: 3.5 × fold
  rpoS transcript fold elevation: 2.3 × fold
  rsfs transcript fold decrease: 19 × fold
  trpA transcript elevation: 1049 ×
  trpB transcript elevation: 1955 ×
  trpC transcript elevation: 606 ×
  trpD transcript elevation: 443 ×
  trpE transcript elevation: 541 ×
  tryD transcript elevation: 443 ×
  ybaY transcript fold elevation: 4-6 × fold
  ycih transcript fold elevation: 8 × fold
  yqgf transcript elevation: 4.64 ×
E. coli K-12; RNA seq (value in parentheses)
  ftsI transcript elevation: 109
  idtB transcript elevation: 164
  idtC transcript elevation: 3.6
E. coli K-12; RNA seq, 13 tRNA synthetases detected
  tRNA synthetases average increase: 11.7 × fold
E. coli K-12; RNA seq, vs control
  CspA transcript fold increase: 1.6 × fold
  nusA transcript fold increase: 3 × fold
E. coli K-12; SD 93
  average fold decrease of decreased genes: 20.4
E. coli K-12; SD 291
  average fold increase of increased genes: 44 × fold
E. coli K-12; after correcting for expected control reading of 82% for rRNA
  fold increase in mRNA or non-ribosomal RNA: 2.75 × fold
E. coli K-12; custom build of E. coli rRNA sequences
  fraction of reads that were rRNA: 68.7%
E. coli K-12; platform not given
  median positive fold change, average mRNA class: 2.6 ×
  median positive fold change, stable mRNA class: 2.7 ×
  median positive fold change, unstable mRNA class: 1.6 ×
  ribD, ribB, ribE and ribF gene transcripts: did not appear to be significantly elevated
E. coli K-12; printed as protein, platform not given
  Nlpl fold decrease: 32 × fold
E. coli K-12; value in parentheses (RNA seq)
  cdsA mRNA increase: 21 ×
[1]
  time by which filaments were detected: ≤ 8 h
  time by which paired bacteria could be seen: ≤ 2 h
E coli; previous studies
  protein spots significantly changed: 28%
E coli; prior protein results
  average fold change of proteins: ~5 × fold
  proteins decreased: 13%
  proteins increased: 15%
